# Reference: patent publication US20050014942A1, “Amide derivatives and drugs” (priority 2001, published 2005)
# Counter-ions that a name gives are not always drawn.
# What was measured:
# [1] = tested on: collagen production induced by TGF-β (TIG-3 cells); test: Inhibitory effect on collagen production induced by TGF-β, [3H] proline uptake (TIG-3 cells); type: cell-based; conditions: Homo sapiens, TGF-β1 3 ng/ml
# Procedure: (§1) As an index of collagen production, the uptake of [^3H] proline was measured.
# (§2) Using a 96-well microplate, normal human skin derived fibroblast (NHDF, 10^4/well) or human embryonic lung fibroblast (TIG-3, 10^4/well) were cultured in a 10% fetal calf serum (FCS)-containing Dulbecco's modified Eagle medium (DMEM) for one day. After removing the culture supernatant, the cells were washed once with a 0.1% bovine serum albumin (BSA)-containing DMEM medium and then cultured in the 0.1% bovine serum albumin (BSA)-containing DMEM medium for one day. After adding each of the test compounds in each concentration (1, 3, 10 μM), the cells were cultured and, after adding TGF-β1 (3 ng/ml) and [^3H] proline (18.5 kBq/well), the cells were further cultured for additional one day.
# (§3) After removing the culture supernatant, the cells were washed twice with a phosphate buffer solution (PBS) and dissolved with 0.3M NaOH and 1% sodium dodecylsulfate (SDS), and then each protein fraction was precipitated with trichloroacetic acid (TCA) After the precipitate was filtered through a glass filter (GF/B) and washed, the quantity of [^3H] proline on the glass filter was measured by a liquid scintillation counter. The number of cells was measured by a cell growth measuring kit (XTT, Roche) and the uptake of [^3H] proline was corrected by the number of cells. Inhibitory ratio was calculated as compared with the case where a difference between the uptake of [^3H] proline with or without TGF-β1.
# [2] = Measurement of concentration of compound in rat plasma; type: in vivo; conditions: oral 10 mg/kg; for concentration at 0.25 h: after 0.25 hours; for concentration at 1 h: after 1 hour; for concentration at 4 h: after 4 hours
# Procedure: Each of the test compounds was dissolved or suspended in methyl cellulose and the resulting solution or suspension was orally administered to rats at a dosage of 10 mg/kg and blood was collected after 0.25 hours, 1 hour and 4 hours. The concentration in plasma in each of the compounds was measured by HPLC.
# [3] = tested on: collagen production induced by TGF-β (NHDF cells); test: Inhibitory effect on collagen production induced by TGF-β, [3H] proline uptake (NHDF cells); type: cell-based, human; conditions: Homo sapiens, NHDF, TGF-β1 3 ng/ml
# Procedure: as §1, §2, §3
# mice = test: Acute toxicity; type: in vivo; conditions: oral 1000 mg/kg, observed for a week after administration
# Procedure: Each of the compounds in Examples 1, 9, 31, 120, and 121 was administered.
Compound,inhibition at 3 µM [1] [%],inhibition at 10 µM [1] [%],concentration at 0.25 h [2] [ng/mL],concentration at 1 h [2] [ng/mL],concentration at 4 h [2] [ng/mL],inhibition at 1 µM [3] [%],inhibition at 3 µM [3] [%],inhibition at 10 µM [3] [%],Acute toxicity: deaths (mice),melting point [°C]
"Cc1ccc2c(c1)c(C(=O)N1CCN(c3ccccn3)CC1)c(-c1ccccc1)n2C [Compound A, 1-(1,5-dimethyl-2-phenylindol-3-ylcarbonyl)-4-(2-pyridyl)piperazine hydrochloride, reference compound]",28,63,0 to 69,55 to 120,5 to 18,8,9,30,,
"Cc1ccc2c(c1)c(C(=O)N1CCN(c3ccc(C(=O)NCCO)cn3)CC1)c(-c1ccccc1)n2C [Example 1, 6-{4-[(1,5-dimethyl-2-phenyl-1H-indol-3-yl)carbonyl]piperazin-1-yl}-N-(2-hydroxyethyl)nicotinamide]",21,56,2300 to 29000,1300 to 7300,750 to 940,,,,no deaths were observed,
"COc1ccc(CNC(=O)/C=C/c2c(-c3ccccc3)n(C)c3ccccc23)cc1 [Example 2, (2E)-N-(4-methoxybenzyl)-3-(1-methyl-2-phenyl-1H-indol-3-yl)acrylamide]",74,117,,,,23,61,79,,
"Cc1ncsc1CCNC(=O)c1cnc(N2CCN(C(=O)c3c(-c4ccccc4)n(C)c4cccnc34)CC2)cn1 [Example 7, 5-{4-[(1-methyl-2-phenyl-1H-pyrrolo[3,2-b]pyridin-3-yl)carbonyl]piperazin-1-yl}-N-[2-(4-methyl-1,3-thiazol-5-yl)ethyl]pyrazine-2-carboxamide]",,,,,,,,,,224.6
"Cc1ccc2c(c1)c(C(=O)N1CCN(c3ccc(-c4nnn(CCO)n4)cn3)CC1)c(-c1ccccc1)n2C.Cl [Example 9, 1,5-dimethyl-2-phenyl-3-[(4-{5-[2-(2-hydroxyethyl)-2H-tetrazol-5-yl]pyridin-2-yl}piperazin-1-yl)carbonyl]-1H-indole hydrochloride]",42,71,1300 to 3900,720 to 2200,350 to 530,,,,no deaths were observed,
"Cc1ccc2c(c1)c(C(=O)N1CCN(c3cnc(C(=O)NCc4ccco4)cn3)CC1)c(-c1ccccc1)n2C [Example 15, 5-{4-[(1,5-dimethyl-2-phenyl-1H-indol-3-yl)carbonyl]piperazin-1-yl}-N-(2-furylmethyl)pyrazine-2-carboxamide]",82,140,,,,,,,,
"Cc1ncsc1CCNC(=O)c1cnc(N2CCN(C(=O)c3c(-c4ccccc4)n(C)c4ncccc34)CC2)cn1 [Example 27, 5-{4-[(1-methyl-2-phenyl-1H-pyrrolo[2,3-b]pyridin-3-yl)carbonyl]piperazin-1-yl}-N-[2-(4-methyl-1,3-thiazol-5-yl)ethyl]pyrazine-2-carboxamide dihydrochloride]",,,2400 to 4100,1500 to 1900,,25,35,42,,
"CC1c2cc3c(cc2CCN1C(=O)/C=C/c1c(-c2ccccc2)n(C)c2ncccc12)OCO3 (stereo not shown) [Example 28, 5-methyl-6-[(2E)-3-(1-methyl-2-phenyl-1H-pyrrolo[2,3-b]pyridin-3-yl)prop-2-enoyl]-5,6,7,8-tetrahydro[1,3]dioxolo[4,5-g]isoquinoline hydrochloride]",,,71 to 170,400 to 550,320 to 460,31,40,92,,
"Cn1c(-c2ccccc2)c(/C=C/C(=O)N2CCC(n3c(=O)[nH]c4ccccc43)CC2)c2cccnc21 [Example 29, 1-{1-[(2E)-3-(1-methyl-2-phenyl-1H-pyrrolo[2,3-b]pyridin-3-yl)prop-2-enoyl]piperidin-4-yl}-1,3-dihydro-2H-benzimidazol-2-one hydrochloride]",,,330 to 940,280 to 1100,170 to 710,64,72,123,,
"Cc1ccc2c(c1)c(C(=O)N1CCN(c3cnc(C(=O)NCCCn4ccnc4)cn3)CC1)c(-c1ccccc1)n2C [Example 31, 5-{4-[(1,5-dimethyl-2-phenyl-1H-indol-3-yl)carbonyl]piperazin-1-yl}-N-[3-(1H-imidazol-1-yl)propyl]pyrazine-2-carboxamide]",36,90,320 to 370,320 to 640,420 to 650,,,74,no deaths were observed,
"Cc1ccc2c(c1)c(C(=O)N1CCN(c3cnc(C(=O)NCc4c(C)noc4C)cn3)CC1)c(-c1ccccc1)n2C [Example 32, 5-{4-[(1,5-dimethyl-2-phenyl-1H-indol-3-yl)carbonyl]piperazin-1-yl}-N-[(3,5-dimethylisoxazol-4-yl)methyl]pyrazine-2-carboxamide]",62,117,,,,,,,,
"Cc1ccc2c(c1)c(C(=O)N1CCN(c3ccc(C(=O)N(CCO)Cc4ccccc4)cn3)CC1)c(-c1ccccc1)n2C [Example 60, 6-{4-[(1,5-dimethyl-2-phenyl-1H-indol-3-yl)carbonyl]piperazin-1-yl}-N-(2-hydroxyethyl)-N-benzylnicotinamide hydrochloride]",70,133,,,,,,,,
"Cc1ccc2c(c1)c(C(=O)N1CCN(c3cnc(C(=O)NCCc4ccccn4)cn3)CC1)c(-c1ccccc1)n2C [Example 76, 5-{4-[(1,5-dimethyl-2-phenyl-1H-indol-3-yl)carbonyl]piperazin-1-yl}-N-[2-(2-pyridyl)ethyl]pyrazine-2-carboxamide]",78,101,,,,,,,,
"Cc1ccc2c(c1)c(C(=O)N1CCN(c3cnc(C(=O)NCCc4scnc4C)cn3)CC1)c(-c1ccccc1)n2C [Example 80, 5-{4-[(1,5-dimethyl-2-phenyl-1H-indol-3-yl)carbonyl]piperazin-1-yl}-N-[2-(4-methyl-1,3-thiazol-5-yl)ethyl]pyrazine-2-carboxamide]",105,149,,,,,,,,
"Cc1ccc2c(c1)c(C(=O)N1CCN(c3ccc(C(=O)N(C)C)cn3)CC1)c(-c1ccccc1)n2C.Cl [Example 120, 6-{4-[(1,5-dimethyl-2-phenyl-1H-indol-3-yl)carbonyl]piperazin-1-yl}-N,N-dimethylnicotinamide hydrochloride]",,,6400 to 10000,3200 to 5700,2500 to 3100,,,,no deaths were observed,
"CC(=O)Nc1cnc(N2CCN(C(=O)c3c(-c4ccccc4)n(C)c4ccc(C)cc34)CC2)cn1 [Example 121, N-[5-{4-[(1,5-dimethyl-2-phenyl-1H-indol-3-yl)carbonyl]piperazin-1-yl}pyrazin-2-yl]acetamide]",,,3900 to 5800,2100 to 5800,310 to 580,,39,54,no deaths were observed,
